# Measured values: paper PMC10063609, “Discovery of novel cardiac troponin activators using fluorescence polarization-based high throughput screening assays” (Scientific Reports, 2023)
# Structures can show the parent of a compound that is named as a salt. *1 amine or outer side, *2 acyl side, *3 side chain or, on linkers, in order; H or OH if unused. Where a SMILES comes first, the peptide text is derived from it. Bridges are numbered along the chain shown (N, C = ends). [ ]: non-standard residue; d: D form. The star is where a group is joined. hTyr(3S-OH,4S-OH,3'-OSO3H) = N[C@H](C(=O)O)[C@H](O)[C@@H](O)c1ccc(O)c(OS(=O)(=O)O)c1; Orn(4R-OH,5R-OH) = O=C([C@H](C[C@@H](O)[C@@H](O)N[*:3])N[*:1])[*:2]; Pro(3S-OH,4S-Me) = C[C@H]1CN[C@H](C(=O)O)[C@H]1O; X1 = CCCCCOc1ccc(-c2cc(-c3ccc(C(=O)*)cc3)no2)cc1; Gln(3R-OH) = NC(=O)C[C@@H](O)[C@H](N)C(=O)O; Hyp = O=C(O)[C@@H]1C[C@@H](O)CN1
# Biological target: interaction between cTnC and switch peptide of cTnI (cTnISP) (Homo sapiens, UniProt P63316)
# Test: Fluorescence polarization HTS and dose-response, cTnC/FAM-cTnISP
# Type: binding
# Settings: cTnISP primary screen, ENZO Screenwell library, single concentration 50 μmol/L
# Method: Each compound was tested at a concentration of 50 μmol/L and 10 μmol/L for the cTnISP and cTnIAR screen, respectively. Hits were defined as compounds that changed the average FP value more than five-times the standard deviation (SD) (Fig. 1d, red lines). Moreover, compounds that either increased or decreased the total fluorescence intensity (FI) more than five-times the SD were removed from further analysis, indicating either compound aggregation or unspecific interactions with the fluorophore or protein complex.
# Libraries were reformatted from 96-well plates to Greiner 384-well black plates using a GILSON PipetMax. The plates were sealed with adhesive foil and stored at − 20 °C until further use. […] A total of 40 nL of 10 mmol/L compound stocks were transferred to each well using a Mosquito liquid handler system (final DMSO concentration of 0.1% (v/v)). The plates were incubated in the dark for 30 min at 25 °C, and the fluorescence polarization from each well was measured using a ClarioStar Plate reader with appropriate excitation and emission filter settings. Dose–response curves were constructed by serial dilution of compounds in DMSO and adding a fixed volume to a mixture of peptide and cTnC.
# Fluorescence polarization dose–response and binding experiments were performed in Greiner 384-well black plates in assay buffer (20 mmol/L Tris–HCl pH 7, 100 mmol/L NaCl, 1 mmol/L CaCl2, 1 mmol/L DTT) at 25 °C.
row,SMILES,FP (mP)
1,CN(C)CCCN1c2ccccc2Sc2ccc(Cl)cc21 [Chlorpromazine.HCl],88.9 mP
2,C[C@@H](NCCCc1cccc(C(F)(F)F)c1)c1cccc2ccccc12 [Cinacalcet.HCl],82.4 mP
3,CC(C)/N=c1\cc2n(-c3ccc(Cl)cc3)c3ccccc3nc-2cc1Nc1ccc(Cl)cc1 [Clofazimine],85.2 mP
4,CCN(CC)CCOc1ccc(C(=C(Cl)c2ccccc2)c2ccccc2)cc1 [Clomiphene Citrate],63.2 mP
5,OCCN1CCN(CCCN2c3ccccc3Sc3ccc(C(F)(F)F)cc32)CC1 [Fluphenazine.HCl],76.1 mP
6,COc1cc2ncnc(Nc3ccc(F)c(Cl)c3)c2cc1OCCCN1CCOCC1 [Gefitinib],83.7 mP
7,N[C@@H](Cc1cc(I)c(Oc2cc(I)c(O)c(I)c2)c(I)c1)C(=O)[O-].[Na+] [Levothyroxine·Na],119.8 mP
8,"CCCCCOc1ccc(-c2cc(-c3ccc(C(=O)N[C@H]4C[C@@H](O)[C@@H](O)NC(=O)[C@@H]5[C@@H](O)[C@@H](C)CN5C(=O)[C@H]([C@H](O)CC(N)=O)NC(=O)[C@H]([C@H](O)[C@@H](O)c5ccc(O)c(OS(=O)(=O)O)c5)NC(=O)[C@@H]5C[C@@H](O)CN5C(=O)[C@H]([C@@H](C)O)NC4=O)cc3)no2)cc1 [Micafungin] (X1-[Orn(4R-OH,5R-OH)]T[Hyp][hTyr(3S-OH,4S-OH,3'-OSO3H)][Gln(3R-OH)][Pro(3S-OH,4S-Me)]; lactam 1-C)",128.6 mP

# Same assay, conditions: cTnISP primary screen, LOPAC 1280 library, single concentration 50 μmol/L
row,SMILES,FP (mP)
1,CCCCCCCCCCCCCCCC(=O)OC(CC(=O)O)C[N+](C)(C)C.[Cl-] (racemic) [Palmitoyl-DL-Carnitine chloride],109.8 mP
2,COc1cc(N2CCN(C)CC2)ccc1Nc1nccc(-c2cn(C)c3cnccc23)n1 [AZ 191],88.5 mP
3,CCOC(=O)c1c(CSc2ccccc2)n(C)c2cc(Br)c(O)c(CN(C)C)c12.Cl [Arbidol hydrochloride],89.4 mP
4,c1ccc2cc(-c3ncc[nH]3)ccc2c1 [Benazoline oxalate],83.7 mP
5,Cc1cc(CN2CCN(c3c(Br)cnc4nc(-c5ccc(N6CCN(C)CC6)cc5)[nH]c34)CC2)no1 [CCT 137690],87 mP
6,Br.Cc1cc2nc(NCCCO)n(CC(=O)c3cc(C(C)(C)C)c(O)c(C(C)(C)C)c3)c2cc1C [CID2858522],89.6 mP
7,Cc1cc(CN)cc(C)c1NC(=O)c1ccc(-c2cc(Cl)ccc2Cl)o1 [CYM50358],84.1 mP
8,Clc1ccc(C(c2ccc(Cl)cc2)n2cc[n+](CC(OCc3ccc(Cl)cc3Cl)c3ccc(Cl)cc3Cl)c2)cc1 (centres unmarked) [Calmidazolium chloride],83.6 mP
9,CN(C)CCCN1c2ccccc2Sc2ccc(Cl)cc21 [Chlorpromazine.HCl],91.3 mP
10,Cc1c2ccncc2c(C)c2c1[nH]c1ccccc12 [Ellipticine],86.1 mP
11,CCN(CC)CCOc1ccc(/C(=C(/Cl)c2ccccc2)c2ccccc2)cc1.Cl [Enclomiphene hydrochloride],78.4 mP
12,OCCN1CCN(CCCN2c3ccccc3Sc3ccc(C(F)(F)F)cc32)CC1 [Fluphenazine dihydrochloride],87.3 mP
13,O=C1NCN(c2ccccc2)C12CCN(CCCC(c1ccc(F)cc1)c1ccc(F)cc1)CC2 [Fluspirilene],88.6 mP
14,Cc1nc(Nc2cnn(C3CCNCC3)c2)nc2c1N(C)C(=O)c1cc3ccccc3cc1N2C [HTH 01-015],87 mP
15,O=C(c1ccc(Nc2nccc(-c3cc4ccccc4s3)n2)cc1)N1CCC(N2CCCC2)CC1 [IKK-16 dihydrochloride],84.3 mP
16,O=C(O)C(O)C(O)C(=O)O.Oc1ccc2c(c1)CC[C@H](c1ccccc1)[C@@H]2c1ccc(OCCN2CCCC2)cc1 [Lasofoxifene tartrate],86.8 mP
17,CSc1ccc2c(c1)C(N1CCN(C)CC1)Cc1ccccc1S2 (centres unmarked) [Methiothepin mesylate],86.5 mP

# Same assay, conditions: cTnISP primary screen, TOCRIScreen library, single concentration 50 μmol/L
row,SMILES,FP (mP)
1,CCN(CC)CCCCN1c2ccccc2Oc2ccc(Cl)cc21.Cl [10-DEBC hydrochloride],82.8 mP
2,CCN1CCN(Cc2ccc(-c3cc4c(N[C@H](C)c5ccccc5)ncnc4[nH]3)cc2)CC1 [AEE 788],77.8 mP
3,Cn1c(NC[C@@H](N)Cc2ccccc2)nc(-c2ccncc2)c(-c2ccc3ccccc3c2)c1=O [AMG 548],90 mP
4,COc1cc(N2CCN(C)CC2)ccc1Nc1nccc(-c2cn(C)c3cnccc23)n1 [AZ 191],83.4 mP
5,Cc1cc(N2C[C@@H](C)N[C@@H](C)C2)ncc1-c1ccc(-c2nc3c(ccn3C)c(=O)[nH]2)cc1 [AZ 6102],83.4 mP
6,O=C1CCc2ccc(OCCCCN3CCN(c4cccc(Cl)c4Cl)CC3)cc2N1 [Aripiprazole],86 mP
7,Cc1c(NC(=O)OC[C@@H]2COCCN2)cn2ncnc(Nc3ccc4c(cnn4Cc4cccc(F)c4)c3)c12.Cl.Cl [BMS 599626 dihydrochloride],88.2 mP
8,CC(C)c1cnn2c(NCc3ccccc3)cc(NCCCCCCN)nc12.Cl.Cl [BS 181 dihydrochloride],73.2 mP
9,O[C@@H](CN1CCNCC1)Cn1c2ccc(Br)cc2c2cc(Br)ccc21 [Bax channel blocker],77.1 mP
10,Cc1c(-c2ccc(O)cc2)n(Cc2ccc(OCCN3CCCCCC3)cc2)c2ccc(O)cc12 [Bazedoxifene acetate],74.5 mP
11,CC(C)COCC(CN(Cc1ccccc1)c1ccccc1)N1CCCC1 (centres unmarked) [Bepridil hydrochloride],87 mP
12,COc1cc2nc(N3CCC(N4CCCCC4)CC3)nc(NC3CCCCCC3)c2cc1OC.Cl.Cl [C 021 dihydrochloride],87.1 mP
13,OCCNC1CCCc2c1[nH]c1ccc(-c3ccccc3)cc21 (centres unmarked) [CASIN],80.4 mP
14,Cc1cc(CN2CCN(c3c(Br)cnc4nc(-c5ccc(N6CCN(C)CC6)cc5)[nH]c34)CC2)no1 [CCT 137690],83.6 mP
15,CCCNc1ccc2ncc(-c3ccc4[nH]ncc4c3)n2n1.O=C(O)C(F)(F)F [CHR 6494 trifluoroacetate],81.9 mP
16,CCCC[C@@H](C=O)NC(=O)[C@H](CC(C)C)NC(=O)OCc1ccccc1 [Calpeptin],121.8 mP
17,CCN1CCN(Cc2ccc(C(=O)Nc3ccc(C)c(Oc4ccc5c(c4)CC(=O)N5)c3)cc2C(F)(F)F)CC1.Cl.Cl [DDR1-IN-1 dihydrochloride],74.4 mP
18,CN1CCN(c2ccc(/C=C(\C#N)c3ccccc3Br)cc2)CC1.Cl.Cl [DG 172 dihydrochloride],81 mP
19,c1ccc(Cn2c(-c3ccc(OC[C@H](C4CCNCC4)n4c(-c5ccccc5)nc5ccccc54)cc3)nc3ccccc32)cc1 [Deltarasin],87.7 mP
20,CCCCCCCCNC(=O)/C(C#N)=C/c1cn(CCCN(C)C)c2ccccc12 [Dynole 34-2],64.1 mP
21,CCOc1cc(C(=O)N2CCC(N3CCN(C)CC3)CC2)ccc1Nc1ncc2c(n1)N(C1CCCC1)c1ccccc1C(=O)N2C [ERK5-IN-1],64.9 mP
22,CCn1c(=O)c(-c2ccc(Cl)cc2Cl)cc2cnc(Nc3ccc(N4CCNCC4)c(F)c3)nc21 [FRAX 486],83.2 mP
23,CN(C(=O)CN1C(=O)COc2cc(Cl)c(Cl)cc21)[C@@H](CN1CCCC1)c1ccc(-c2cccc(C(N)=O)c2)cc1.Cl [GSK 1562590 hydrochloride],89.9 mP
24,COc1cc2ncnc(Nc3ccc(F)c(Cl)c3)c2cc1OCCCN1CCOCC1 [Gefitinib],81.8 mP
25,CCOc1cc2ncc(C#N)c(Nc3ccc(OCc4cccc(F)c4)c(Cl)c3)c2cc1NC(=O)/C=C/CN(C)C [HKI 357],73.4 mP
26,Cc1nc(Nc2cnn(C3CCNCC3)c2)nc2c1N(C)C(=O)c1cc3ccccc3cc1N2C [HTH 01-015],87.1 mP
27,O=C(c1ccc(Nc2nccc(-c3cc4ccccc4s3)n2)cc1)N1CCC(N2CCCC2)CC1 [IKK 16],82 mP
28,CCc1ccc(OCc2ccccc2C(=O)Nc2ccc3nc(C)cc(N)c3c2)cc1 [JTC 801],84.3 mP
